Where two headings read alike, the source gives them in different places.
Key:
[1] = tested on: Mycosphaerella graminicola; Anamorph: Septoria tritici; assay: Leaf Blotch of Wheat (SEPTTR) disease control; format: in vivo; settings: Zymoseptoria tritici
In short: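 Seedlings of variety Yuma grew until the first leaf fully emerged. Fungicide solution (acetone/water with Triton X-100) was sprayed to run-off; plants were inoculated with S. tritici spores before or after spraying, held one day dark and two to three days lit at 100% humidity, then kept at 20° C.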

[2] = tested on: Puccinia triticina; Synonym: Puccinia recondite f. Sp. Tritici; assay: Wheat Brown Rust (PUCCRT) disease control; format: in vivo; settings: Puccinia triticina, topical
In short: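 Brown rust on first-leaf Yuma wheat: spore inoculation before or after spray application (acetone/Triton X-100 solution, or EC with Trycol in track spray), overnight 100% RH at 22 °C, disease developed at 24 °C. Severity scored 0–100% and converted to percent control against untreated.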

[3] = 24 h, 1 Day Protectant, rate 100 ppm, read-out: SEPTTR 1 DP disease control
[4] = 72 h, 3 Day Curative, rate 100 ppm, read-out: SEPTTR 3 DC disease control
[5] = 24 h, 1 Day Protectant, rate 100 ppm, read-out: PUCCRT 1 DP disease control
[6] = 72 h, 3 Day Curative, rate 100 ppm, read-out: PUCCRT 3 DC disease control
[7] = 24 h, 1 Day Protectant, rate 121.5 g/H, read-out: SEPTTR 1 DP disease control
[8] = 72 h, 3 Day Curative, rate 121.5 g/H, read-out: SEPTTR 3 DC disease control
[9] = 24 h, 1 Day Protectant, rate 121.5 g/H, read-out: PUCCRT 1 DP disease control
[10] = 72 h, 3 Day Curative, rate 121.5 g/H, read-out: PUCCRT 3 DC disease control

SMILES	pest or weed control at 100 ppm [1, 3]	pest or weed control at 100 ppm [1, 4]	pest or weed control at 100 ppm [2, 5]	pest or weed control at 100 ppm [2, 6]	pest or weed control at 121.5 g/ha [1, 7]	pest or weed control at 121.5 g/ha [1, 8]	pest or weed control at 121.5 g/ha [2, 9]	pest or weed control at 121.5 g/ha [2, 10]	pest or weed control at 100 ppm ([1]; 24 h, Wheat Leaf Blotch, 1 Day Protectant, rate 100 ppm (high volume application), read-out: Disease control SEPTTR 1 DP)	pest or weed control at 121.5 g/ha ([1]; 24 h, Wheat Leaf Blotch, 1 Day Protectant, rate 121.5 g/H (low volume application), read-out: Disease control SEPTTR 1 DP)	pest or weed control at 100 ppm ([1]; 72 h, Wheat Leaf Blotch, 3 Day Curative, rate 100 ppm (high volume application), read-out: Disease control SEPTTR 3 DC)	pest or weed control at 121.5 g/ha ([1]; 72 h, Wheat Leaf Blotch, 3 Day Curative, rate 121.5 g/H (low volume application), read-out: Disease control SEPTTR 3 DC)	pest or weed control at 100 ppm ([2]; 24 h, Wheat Brown Rust, 1 Day Protectant, rate 100 ppm (high volume application), read-out: Disease control PUCCRT 1 DP)	pest or weed control at 121.5 g/ha ([2]; 24 h, Wheat Brown Rust, 1 Day Protectant, rate 121.5 g/H (low volume application), read-out: Disease control PUCCRT 1 DP)	pest or weed control at 100 ppm ([2]; 72 h, Wheat Brown Rust, 3 Day Curative, rate 100 ppm (high volume application), read-out: Disease control PUCCRT 3 DC)	pest or weed control at 121.5 g/ha ([2]; 72 h, Wheat Brown Rust, 3 Day Curative, rate 121.5 g/H (low volume application), read-out: Disease control PUCCRT 3 DC)
COc1ccnc(C(=O)N[C@H]2CCC[C@H](Cc3ccc(F)cc3)[C@@H](OCC(F)F)[C@H](C)OC2=O)c1O [Compound F15]	80 to 100%	80 to 100%	80 to 100%	80 to 100%												
COc1ccnc(C(=O)N[C@H]2CCC[C@H](CCBr)[C@@H](Oc3ccccc3)[C@H](C)OC2=O)c1OCOC(C)=O [Compound F135]	80 to 100%	80 to 100%	80 to 100%	80 to 100%												
COc1ccnc(C(=O)N[C@H]2CCC[C@H](Cc3ccccc3)[C@@H](OCC(C)C)[C@H](C)OC2=O)c1O [Compound F18]	80 to 100%	80 to 100%	80 to 100%	0 to 80%												
COc1ccnc(C(=O)N[C@H]2CCC[C@H](CC3CCCC3)[C@@H](OCC(C)C)[C@H](C)OC2=O)c1OCOC(C)=O [Compound F123]	80 to 100%	80 to 100%	80 to 100%	80 to 100%	80 to 100%	80 to 100%	80 to 100%	0 to 80%								
COc1ccnc(C(=O)N[C@H]2CCC[C@H](CC3CCCC3)[C@@H](OCC3CC3)[C@H](C)OC2=O)c1O [Compound F31]	80 to 100%	80 to 100%	80 to 100%	80 to 100%												
COCC[C@H]1CCC[C@H](NC(=O)c2nccc(OC)c2O)C(=O)O[C@@H](C)[C@@H]1OCC(C)C [Compound F47]	80 to 100%	80 to 100%	80 to 100%	80 to 100%												
COc1ccnc(C(=O)N[C@H]2CCC[C@H](CCBr)[C@@H](Oc3ccccc3)[C@H](C)OC2=O)c1O [Compound F50]	80 to 100%	80 to 100%	80 to 100%	80 to 100%												
COCCC(=O)Oc1c(OC)ccnc1C(=O)N[C@H]1CCC[C@H](CC2CCCC2)[C@@H](OCC2CC2)[C@H](C)OC1=O [Compound F194]									80 to 100%	80 to 100%	80 to 100%	80 to 100%	80 to 100%	80 to 100%	80 to 100%	0 to 80%
COc1ccnc(C(=O)N[C@H]2CCC[C@H](CCOc3ccccc3)[C@@H](OCC3CC3)[C@H](C)OC2=O)c1OCOC(C)=O [Compound F142]	80 to 100%	80 to 100%	80 to 100%	80 to 100%	80 to 100%	0 to 80%	80 to 100%	80 to 100%								
COc1ccnc(C(=O)N[C@H]2CCC[C@H](CCOc3ccccc3)[C@@H](Oc3ccccc3)[C@H](C)OC2=O)c1OCOC(C)=O [Compound F129]	80 to 100%	80 to 100%	80 to 100%	80 to 100%	80 to 100%	80 to 100%	80 to 100%	0 to 80%								
CCOCC(=O)OCOc1c(OC)ccnc1C(=O)N[C@H]1CCC[C@H](CCC(C)C)[C@@H](OCC(C)C)[C@H](C)OC1=O [Compound F159]	80 to 100%	80 to 100%	80 to 100%	80 to 100%	80 to 100%	80 to 100%	80 to 100%	0 to 80%								
COc1ccnc(C(=O)N[C@H]2CCC[C@H](CC3CCCCC3)[C@@H](OCC3CC3)[C@H](C)OC2=O)c1OCOC(C)=O [Compound F97]	80 to 100%	80 to 100%	80 to 100%	80 to 100%	80 to 100%	80 to 100%	80 to 100%	80 to 100%								

Source: US9265253B2, “Use of macrocyclic picolinamides as fungicides” (DOW AGROSCIENCES LLC, priority 2013, dated 2016)
